According to patent US12624017B2, “Salt form of isoquinolinone type compound as rock inhibitor and preparation method therefor” (GUANGZHOU OCUSUN OPHTHALMIC BIOTECHNOLOGY CO., LTD., priority 2020, dated 2026):

Key:
Format in all cases: in vivo, New Zealand white rabbits
[1] = system: New Zealand rabbits with normal intraocular pressure; test: Eye irritation response detection with hand-held slit lamp, 14 days eye drops; conditions: 4 mg/mL; 14 consecutive days; 50 μl/eye/day
Protocol: (§1) 42 male New Zealand white rabbits were randomly grouped into 7 groups according to body weights, 6 rabbits/group. Among the animals in Groups 1-7, the left eye was administrated dropwise with normal saline, and the right eye was administrated dropwise with a solvent/control/test article in an administration volume of 50 μL/eye respectively, once a day for 14 consecutive days, and the day of first administration was recorded as Day 1. The intraocular pressures of the animals were measured before administration on Day 1, as well as at 1 h, 2 h, 4 h, 6 h, 8 h and 10 h after administration on Day 1 (Table 10).
Animals were subjected to eye irritation response detection and fluorescein sodium detection (scored according to scoring criteria) in both eyes with a hand-held slit lamp before the start of test (Day −2/Day −1), before daily administration (Day 1 to Day 14), and at 1 h, 2 h, 4 h, 24 h, 48 h, and 72 h after the last administration (Day 14).
Animals were subjected to eye irritation response detection in both eyes with a handheld slit lamp on Day −2 to Day −1 before the start of test, before first administration every day (Day 1 to Day 14), and at 1 h, 2 h, 4 h, 24 h, 48 h, and 72 h after the last administration. The scoring criteria were as follows: […]

[2] = system: New Zealand rabbits with normal intraocular pressure; test: Intraocular pressure reduction, normal intraocular pressure, Day 1 (Operation II); conditions: 4 mg/mL in right eye, Day 1; for Change in intraocular pressure: vs negative controls
From the text: An intraocular pressure reduction effect and potential ocular toxicity of the compound of formula (I) were inspected with rabbits with normal intraocular pressure by repeated administration of eye drops for 14 days.
Male New Zealand white rabbits, aged 97 to 127 days, weighted 2.6-3.5 kg, purchased from Pizhou Oriental Breeding Co., Ltd.
as §1

[3] = system: New Zealand rabbits suffered with acute intraocular hypertension; test: Intraocular pressure reduction test in acute intraocular hypertension model; conditions: for Intraocular pressure in left eye: 4 mg/mL group, left eye (solvent only); for Intraocular pressure in right eye: 4 mg/mL, 50 μL, right eye (modelled, dosed)
From the text: Acute intraocular hypertension was induced for rabbits by injection of a viscoelastic agent into the anterior chamber, and the effects of ocular pressure reduction of the compound of formula (I) were inspected by administration of eye drops at different concentrations.
Male New Zealand white rabbits, aged 97 to 127 days, weighted 2.5 to 3.4 kg, purchased from Pizhou Oriental Breeding Co., Ltd.
50 male New Zealand white rabbits were randomly divided into 5 groups according to body weight, 10 rabbits/group. The anterior chambers of the right eyes of animals in Groups 1 to 5 were injected with medical sodium hyaluronate gel in a single dose, 100 μL/eye, to induce ocular hypertension in the animals. In 5 to 15 min after molding, the right eye was administrated dropwise with the solvent, K-115, and the test article (compounds of formula (I) of different concentrations), and the left eye was administrated dropwise with the solvent, 50 μL/eye; and the intraocular pressures of the animals in both eyes were measured before administration, as well as at 2, 4, 6, 8, and 10 h after administration, respectively.

C[C@H]1CNCCCN1S(=O)(=O)c1cccc2cncc(F)c12 [K-115, reference compound]
Eye irritation (conclusion) [1]: no irritation
Average intraocular pressure in both eyes ([2]; 1 h after administration): 5.50 mmHg
Change in intraocular pressure ([2]; 1 h after administration): −3.39 mmHg
Average intraocular pressure in both eyes ([2]; 2 h after administration): 7.06 mmHg
Change in intraocular pressure ([2]; 2 h after administration): −2.50 mmHg
Average intraocular pressure in both eyes ([2]; 4 h after administration): 9.00 mmHg
Change in intraocular pressure ([2]; 4 h after administration): −0.89 mmHg
Average intraocular pressure in both eyes ([2]; 6 h after administration): 9.17 mmHg
Change in intraocular pressure ([2]; 6 h after administration): −1.61 mmHg
Average intraocular pressure in both eyes ([2]; 8 h after administration): 10.61 mmHg
Change in intraocular pressure ([2]; 8 h after administration): 0.23 mmHg
Average intraocular pressure in both eyes ([2]; 10 h after administration): 12.33 mmHg
Change in intraocular pressure ([2]; 10 h after administration): 0.17 mmHg
Average intraocular pressure in both eyes ([2]; before administration): 10.17 mmHg
Change in intraocular pressure ([2]; before administration): 0.83 mmHg
Intraocular pressure in left eye ([3]; 2 h after administration): 6.50 mmHg
Intraocular pressure in left eye ([3]; 4 h after administration): 8.54 mmHg
Intraocular pressure in left eye ([3]; 6 h after administration): 11.40 mmHg
Intraocular pressure in left eye ([3]; 8 h after administration): 13.20 mmHg
Intraocular pressure in left eye ([3]; 10 h after administration): 13.37 mmHg
Intraocular pressure in left eye ([3]; before administration): 11.80 mmHg
Intraocular pressure in right eye ([3]; 2 h after administration): 8.20 mmHg
Intraocular pressure in right eye ([3]; 4 h after administration): 11.27 mmHg
Intraocular pressure in right eye ([3]; 6 h after administration): 15.07 mmHg
Intraocular pressure in right eye ([3]; 8 h after administration): 15.57 mmHg
Intraocular pressure in right eye ([3]; 10 h after administration): 16.47 mmHg
Intraocular pressure in right eye ([3]; before administration): 11.77 mmHg
